Laboratory results: patent US20090176817A1, “Method of Treatment of Diarrhea-Predominant Irritable Bowel Syndrome in a Subject” (priority 2005, published 2009)

System: diarrhea-predominant IBS subjects
Assay: Study S241.3.009: weekly diary questions on adequate relief
Type: in vivo, human
Conditions: ITT, 2 mg TID; for Number of months a subject was a responder: Three months (IBS symptoms) / Number of months a subject was a responder: Two months (Abdominal pain/discomfort) / Number of months a subject was a responder: Two months (Abnormal bowel habits) / Number of months a subject was a responder: Two months (IBS symptoms) / Number of months a subject was a responder: Zero months (Abdominal pain/discomfort) / Number of months a subject was a responder: Zero months (Abnormal bowel habits) / Number of months a subject was a responder: Zero months (IBS symptoms) / Number of months a subject was a responder: One month (Abdominal pain/discomfort) / Number of months a subject was a responder: One month (Abnormal bowel habits) / Number of months a subject was a responder: One month (IBS symptoms) / Number of months a subject was a responder: Three months (Abdominal pain/discomfort) / Number of months a subject was a responder: Three months (Abnormal bowel habits): Months 1 to 3, monthly LOCF; for Overall responder rate, adequate relief of IBS symptoms / Overall responder rate, adequate relief of abdominal pain/discomfort / Overall responder rate, adequate relief of abnormal bowel habits: 26-week treatment period, observed case
Protocol: Study S241.3.009 was a Phase III, a double-blind, placebo-controlled, randomized, multinational study to investigate the safety and efficacy of 2 mg TID of cilansetron over 26 weeks in diarrhea-predominant IBS subjects. The study was conducted in 146 multinational study centers. A total of 1307 subjects consented to participate, and 806 subjects were randomized. A total of 792 subjects were analyzed for efficacy and 799 subjects were analyzed for safety. Diagnosis and main criteria for inclusion were IBS subjects satisfying the Rome I criteria (1992); the diarrhea-predominant sub-population of the Rome II criteria; and a minimum abdominal pain/discomfort, stool frequency and consistency determined during the run-in period. Subjects were treated with cilansetron 2 mg tablets given orally TID or matching placebo tablets given orally TID for 26 weeks.
The primary efficacy parameter was the overall response rate for IBS symptoms, based on the weekly question concerning adequate relief of IBS symptoms (abdominal pain/discomfort, abnormal bowel habits) over the 26 weeks period. A responder was a subject who responded “yes” at least 50% of the time during his/her treatment period, with minimum treatment duration of four weeks. The two main secondary efficacy parameters were overall responder rate based on the weekly question on adequate relief of abdominal pain/discomfort and abnormal bowel habits during the 26-week treatment period. The onset of action of cilansetron was also examined using daily diary data (stool frequency, and ratings of urgency and severity) during the initial 8 weeks of trial participation. An additional key secondary efficacy parameter was the number of months (one month equals four weeks) up to six months (24-weeks) that a subject was a responder for IBS symptoms, where a responder was defined as a subject who answered the weekly question with “yes” at least twice for that month. The responder rate for the weekly diary questions on adequate relief at each month and all months, the adequate relief rate, the number of subjects with adequate relief by week, daily diary questions, IBS-QOL scores, and the interruption of activities were also assessed. Safety was evaluated by physical examination, ECG, vital signs, laboratory evaluations, concomitant medications, and AEs.
Studies S24 1.3.OO6, S24 1.3.0 1 1, and S24 1.3.009 used the following efficacy measurements: • The subjects answered the following three questions with “yes” or “no” using a phone diary at the end of each week: • a) During the last week, did you experience adequate relief of your IBS symptoms, such as abdominal pain, abdominal discomfort, abnormal bowel habits? • b) During the last week, did you experience adequate relief of your abdominal pain and/or discomfort? • c) During the last week, did you experience adequate relief of your abnormal bowel habits? • The subjects rated the following symptoms using the phone diary at the end of each day: • abdominal pain/discomfort (five-point scale); • stool consistency (seven-point Bristol Stool Scale); • stool frequency (number of bowel movements each day); • urgency (five-point scale); • straining (yes or no); • feeling of incomplete defecation (yes or no); • bloating or feeling of abdominal distension (five-point scale). • In Studies S241 A006 and S241.3.009, subjects completed the IBS-QOL Survey at Baseline (Day 1) and at the end of treatment. In Study S24 1.3.0 1 1, subjects completed the IBS-QOL Survey at Baseline (Day 1), at the end of the three-month treatment period, and at the end of rerandomized treatment.
In all three pivotal efficacy studies, the primary and main secondary efficacy parameters were based on the weekly diary questions on adequate relief and included the following: • 1. Number of months (one month equals four weeks) that a subject was a responder for the weekly diary questions on adequate relief. […]

[1] = Baseline severity of IBS: non-severe
[2] = Baseline severity of IBS: severe
[3] = Duration of IBS: >24 months to ≦48 months, monthly LOCF imputation

Cc1nccn1C[C@H]1CCc2c(c3cccc4c3n2CCC4)C1=O [Cilansetron, (R)-(−)-4,5,6,8,9,10-hexahydro-10-[(2-methyl-1H-imidazol-1-yl)methyl]-11H-pyrido-[3,2,1-jk]-carbazol-11-one]
Number of months a subject was a responder: Three months (IBS symptoms) (Baseline BMI: <30 kg/m^2): 131 (40) n (%)
Number of months a subject was a responder: Two months (Abdominal pain/discomfort) (Baseline BMI: <30 kg/m^2): 58 (18) n (%)
Number of months a subject was a responder: Two months (Abnormal bowel habits) (Baseline BMI: <30 kg/m^2): 69 (21) n (%)
Number of months a subject was a responder: Two months (IBS symptoms) (Baseline BMI: <30 kg/m^2): 64 (19) n (%)
Number of months a subject was a responder: Zero months (Abdominal pain/discomfort) (Baseline BMI: <30 kg/m^2): 82 (25) n (%)
Number of months a subject was a responder: Zero months (Abnormal bowel habits) (Baseline BMI: <30 kg/m^2): 78 (24) n (%)
Number of months a subject was a responder: Zero months (IBS symptoms) (Baseline BMI: <30 kg/m^2): 86 (26) n (%)
Overall responder rate, adequate relief of IBS symptoms (Baseline BMI: ≧30 kg/m^2): 27 (42) n (%)
Overall responder rate, adequate relief of abdominal pain/discomfort (Baseline BMI: ≧30 kg/m^2): 32 (49) n (%)
Overall responder rate, adequate relief of abnormal bowel habits (Baseline BMI: ≧30 kg/m^2): 33 (51) n (%)
Number of months a subject was a responder: One month (Abdominal pain/discomfort) (Baseline BMI: ≧30 kg/m^2): 10 (15) n (%)
Number of months a subject was a responder: One month (Abnormal bowel habits) (Baseline BMI: ≧30 kg/m^2): 10 (15) n (%)
Number of months a subject was a responder: One month (IBS symptoms) (Baseline BMI: ≧30 kg/m^2): 6 (9) n (%)
Number of months a subject was a responder: Three months (Abdominal pain/discomfort) (Baseline BMI: ≧30 kg/m^2): 20 (31) n (%)
Number of months a subject was a responder: Three months (Abnormal bowel habits) (Baseline BMI: ≧30 kg/m^2): 21 (32) n (%)
Number of months a subject was a responder: Three months (IBS symptoms) (Baseline BMI: ≧30 kg/m^2): 19 (29) n (%)
Number of months a subject was a responder: Two months (Abdominal pain/discomfort) (Baseline BMI: ≧30 kg/m^2): 12 (18) n (%)
Number of months a subject was a responder: Two months (Abnormal bowel habits) (Baseline BMI: ≧30 kg/m^2): 14 (22) n (%)
Number of months a subject was a responder: Two months (IBS symptoms) (Baseline BMI: ≧30 kg/m^2): 16 (25) n (%)
Number of months a subject was a responder: Zero months (Abdominal pain/discomfort) (Baseline BMI: ≧30 kg/m^2): 23 (35) n (%)
Number of months a subject was a responder: Zero months (Abnormal bowel habits) (Baseline BMI: ≧30 kg/m^2): 20 (31) n (%)
Number of months a subject was a responder: Zero months (IBS symptoms) (Baseline BMI: ≧30 kg/m^2): 24 (37) n (%)
Overall responder rate, adequate relief of IBS symptoms [1]: 149 (61) n (%)
Overall responder rate, adequate relief of abdominal pain/discomfort [1]: 150 (61) n (%)
Overall responder rate, adequate relief of abnormal bowel habits [1]: 161 (65) n (%)
Number of months a subject was a responder: One month (Abdominal pain/discomfort) [1]: 42 (17) n (%)
Number of months a subject was a responder: One month (Abnormal bowel habits) [1]: 31 (13) n (%)
Number of months a subject was a responder: One month (IBS symptoms) [1]: 37 (15) n (%)
Number of months a subject was a responder: Three months (Abdominal pain/discomfort) [1]: 102 (41) n (%)
Number of months a subject was a responder: Three months (Abnormal bowel habits) [1]: 104 (42) n (%)
Number of months a subject was a responder: Three months (IBS symptoms) [1]: 95 (39) n (%)
Number of months a subject was a responder: Two months (Abdominal pain/discomfort) [1]: 41 (17) n (%)
Number of months a subject was a responder: Two months (Abnormal bowel habits) [1]: 54 (22) n (%)
Number of months a subject was a responder: Two months (IBS symptoms) [1]: 51 (21) n (%)
Number of months a subject was a responder: Zero months (Abdominal pain/discomfort) [1]: 61 (25) n (%)
Number of months a subject was a responder: Zero months (Abnormal bowel habits) [1]: 57 (23) n (%)
Number of months a subject was a responder: Zero months (IBS symptoms) [1]: 63 (26) n (%)
Overall responder rate, adequate relief of IBS symptoms [2]: 84 (57) n (%)
Overall responder rate, adequate relief of abdominal pain/discomfort [2]: 88 (59) n (%)
Overall responder rate, adequate relief of abnormal bowel habits [2]: 91 (61) n (%)
Number of months a subject was a responder: One month (Abdominal pain/discomfort) [2]: 19 (13) n (%)
Number of months a subject was a responder: One month (Abnormal bowel habits) [2]: 18 (12) n (%)
Number of months a subject was a responder: One month (IBS symptoms) [2]: 18 (12) n (%)
Number of months a subject was a responder: Three months (Abdominal pain/discomfort) [2]: 56 (38) n (%)
Number of months a subject was a responder: Three months (Abnormal bowel habits) [2]: 60 (41) n (%)
Number of months a subject was a responder: Three months (IBS symptoms) [2]: 54 (36) n (%)
Number of months a subject was a responder: Two months (Abdominal pain/discomfort) [2]: 29 (20) n (%)
Number of months a subject was a responder: Two months (Abnormal bowel habits) [2]: 29 (20) n (%)
Number of months a subject was a responder: Two months (IBS symptoms) [2]: 29 (20) n (%)
Number of months a subject was a responder: Zero months (Abdominal pain/discomfort) [2]: 44 (30) n (%)
Number of months a subject was a responder: Zero months (Abnormal bowel habits) [2]: 41 (28) n (%)
Number of months a subject was a responder: Zero months (IBS symptoms) [2]: 47 (32) n (%)
Number of months a subject was a responder during Months 1 to 3: Abdominal pain/discomfort, One month [3]: 14 (15) n (%)
Number of months a subject was a responder during Months 1 to 3: Abdominal pain/discomfort, Three months [3]: 37 (39) n (%)
Number of months a subject was a responder during Months 1 to 3: Abdominal pain/discomfort, Two months [3]: 19 (20) n (%)
Number of months a subject was a responder during Months 1 to 3: Abdominal pain/discomfort, Zero months [3]: 26 (27) n (%)
Number of months a subject was a responder during Months 1 to 3: Abnormal bowel habits, One month [3]: 11 (11) n (%)
Number of months a subject was a responder during Months 1 to 3: Abnormal bowel habits, Three months [3]: 36 (38) n (%)
Number of months a subject was a responder during Months 1 to 3: Abnormal bowel habits, Two months [3]: 25 (26) n (%)
Number of months a subject was a responder during Months 1 to 3: Abnormal bowel habits, Zero months [3]: 24 (25) n (%)
